Data on two compounds can be found in publication doi:10.1101/2025.11.20.689572v1 (biorxiv, 2025).

Where two headings read alike, the source gives them in different places.

Experiment [1] concerns the target T1, HTR2C (Homo sapiens, UniProt P28335).
T1 sequence (P28335 1-458): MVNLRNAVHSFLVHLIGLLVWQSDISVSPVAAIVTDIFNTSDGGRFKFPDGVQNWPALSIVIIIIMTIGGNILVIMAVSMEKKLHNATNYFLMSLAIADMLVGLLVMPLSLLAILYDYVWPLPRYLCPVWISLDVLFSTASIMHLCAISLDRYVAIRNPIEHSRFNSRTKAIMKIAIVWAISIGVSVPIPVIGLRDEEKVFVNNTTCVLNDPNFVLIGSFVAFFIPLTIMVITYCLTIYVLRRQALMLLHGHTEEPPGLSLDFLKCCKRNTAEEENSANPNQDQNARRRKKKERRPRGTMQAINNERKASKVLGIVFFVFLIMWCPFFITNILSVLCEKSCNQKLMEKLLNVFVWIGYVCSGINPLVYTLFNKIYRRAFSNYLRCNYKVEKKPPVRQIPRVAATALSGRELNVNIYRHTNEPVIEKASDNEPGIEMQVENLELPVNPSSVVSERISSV
In words: cell-based. To be noted: HEK293, read-out: N-Desmethyl Xanomeline, Assay=Gq; agonist mode, % of control agonist. Further details: species or system HEK293; TRUPATH BRET2 G-protein dissociation; antagonist mode against agonist EC80.

For the next experiment, the target named is T2, CHRM1 (Homo sapiens, UniProt P11229).
T2 sequence (P11229 1-460): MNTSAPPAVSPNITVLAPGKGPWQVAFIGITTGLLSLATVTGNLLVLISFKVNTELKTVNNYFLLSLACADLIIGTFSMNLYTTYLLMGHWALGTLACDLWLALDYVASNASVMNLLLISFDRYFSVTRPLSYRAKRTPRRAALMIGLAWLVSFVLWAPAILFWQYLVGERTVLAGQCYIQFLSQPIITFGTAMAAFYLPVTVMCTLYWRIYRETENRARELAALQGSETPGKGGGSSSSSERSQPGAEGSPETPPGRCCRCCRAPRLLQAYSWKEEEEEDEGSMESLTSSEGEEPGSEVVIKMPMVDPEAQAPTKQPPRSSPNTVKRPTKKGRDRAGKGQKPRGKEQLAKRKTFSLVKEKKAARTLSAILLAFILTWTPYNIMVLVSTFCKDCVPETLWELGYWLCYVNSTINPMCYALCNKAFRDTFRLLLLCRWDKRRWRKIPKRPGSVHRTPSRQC
The experiment is described as follows: cell-based. Particulars: HEK293, read-out: N-Desmethyl Xanomeline, Assay=Gq; agonist mode, % of control agonist. Further details: species or system HEK293; TRUPATH BRET2 G-protein dissociation; antagonist mode against agonist EC80.

Experiment [2] addresses T1, HTR2C. In words: cell-based. Particulars: HEK293, read-out: N-Desmethyl Xanomeline; Assay=Calcium; agonist mode, % of control agonist. Further details: species or system HEK293; Fluo-4 Direct calcium mobilization on FLIPR-Tetra.
For a further experiment, the target named is T3, M5 (Homo sapiens, UniProt P08912).
T3 construct: gene CHRM5; full-length receptor; HEK293 with TRUPATH sensors (function)
T3 sequence (P08912 1-532): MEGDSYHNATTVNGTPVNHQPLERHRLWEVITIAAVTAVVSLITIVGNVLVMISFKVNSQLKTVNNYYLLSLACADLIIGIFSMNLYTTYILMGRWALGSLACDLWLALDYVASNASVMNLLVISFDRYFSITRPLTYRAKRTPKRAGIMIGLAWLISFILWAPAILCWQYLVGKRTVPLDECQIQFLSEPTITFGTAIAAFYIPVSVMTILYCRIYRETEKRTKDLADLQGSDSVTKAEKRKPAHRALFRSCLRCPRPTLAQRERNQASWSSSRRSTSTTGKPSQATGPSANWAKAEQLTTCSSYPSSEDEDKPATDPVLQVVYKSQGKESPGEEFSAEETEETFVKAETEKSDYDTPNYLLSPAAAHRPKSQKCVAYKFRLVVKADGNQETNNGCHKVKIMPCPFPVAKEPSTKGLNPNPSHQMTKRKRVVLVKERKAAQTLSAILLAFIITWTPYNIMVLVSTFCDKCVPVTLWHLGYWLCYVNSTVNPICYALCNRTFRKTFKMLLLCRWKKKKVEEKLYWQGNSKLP
In words: competitive radioligand binding, HEK293 membranes.

For a further experiment, the target named is CHRM3 (Homo sapiens, UniProt P20309). In words: cell-based.
Another experiment concerns the target T4, H4 (Homo sapiens, UniProt Q9H3N8).
T4 construct: gene HRH4; full-length receptor; HEK293 cell membranes
In words: competitive radioligand binding, HEK293 membranes. From the text:
competitive radioligand binding, HEK293 membranes on H4

The target of the next experiment is T5, 5-HT5A (Homo sapiens, UniProt P47898).
T5 construct: gene HTR5A; full-length receptor; HEK293 cell membranes
In words: competitive radioligand binding, HEK293 membranes. From the text:
competitive radioligand binding, HEK293 membranes on 5-HT5A

The next experiment addresses T6, D1 (Homo sapiens, UniProt P21728).
T6 construct: gene DRD1; full-length receptor; HEK293 cell membranes
In words: competitive radioligand binding, HEK293 membranes. From the text: competitive radioligand binding, HEK293 membranes on D1

In a further experiment the target is T7, H3 (Homo sapiens, UniProt Q9Y5N1).
T7 construct: gene HRH3; full-length receptor; HEK293 cell membranes
In words: competitive radioligand binding, HEK293 membranes. From the text:
competitive radioligand binding, HEK293 membranes on H3

As usually defined, the Ki is a dissociation constant, usually derived from enzyme kinetics or from competition with a known ligand. The term EC50 denotes the concentration that produces a half-maximal response. Low readings indicate an effect from little substance, high ones a need for much substance.

T6 sequence (P21728 whole entry): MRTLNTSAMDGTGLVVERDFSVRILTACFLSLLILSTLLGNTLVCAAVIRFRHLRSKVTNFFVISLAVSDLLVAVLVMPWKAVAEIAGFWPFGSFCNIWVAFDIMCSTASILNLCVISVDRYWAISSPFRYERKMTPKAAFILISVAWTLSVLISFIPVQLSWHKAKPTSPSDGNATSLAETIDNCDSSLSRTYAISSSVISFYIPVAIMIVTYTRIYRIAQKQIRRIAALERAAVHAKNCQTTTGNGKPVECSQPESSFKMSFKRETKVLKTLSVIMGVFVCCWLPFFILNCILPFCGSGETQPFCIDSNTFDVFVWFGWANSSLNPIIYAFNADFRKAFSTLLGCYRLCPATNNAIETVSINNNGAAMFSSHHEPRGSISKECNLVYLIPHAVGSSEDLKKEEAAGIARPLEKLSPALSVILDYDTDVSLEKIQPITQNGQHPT
T4 sequence (Q9H3N8 whole entry): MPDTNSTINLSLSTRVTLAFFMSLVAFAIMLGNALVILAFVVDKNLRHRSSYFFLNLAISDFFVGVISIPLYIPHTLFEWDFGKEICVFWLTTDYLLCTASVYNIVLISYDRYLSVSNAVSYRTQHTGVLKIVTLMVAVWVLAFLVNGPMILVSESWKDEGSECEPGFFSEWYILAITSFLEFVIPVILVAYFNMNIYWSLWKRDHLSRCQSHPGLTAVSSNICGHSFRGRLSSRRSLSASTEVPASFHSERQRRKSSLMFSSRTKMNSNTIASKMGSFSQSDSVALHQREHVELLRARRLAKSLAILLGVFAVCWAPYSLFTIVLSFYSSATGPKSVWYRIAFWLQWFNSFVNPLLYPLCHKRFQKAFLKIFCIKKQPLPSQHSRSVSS
Sequence of CHRM3 (P20309 whole entry): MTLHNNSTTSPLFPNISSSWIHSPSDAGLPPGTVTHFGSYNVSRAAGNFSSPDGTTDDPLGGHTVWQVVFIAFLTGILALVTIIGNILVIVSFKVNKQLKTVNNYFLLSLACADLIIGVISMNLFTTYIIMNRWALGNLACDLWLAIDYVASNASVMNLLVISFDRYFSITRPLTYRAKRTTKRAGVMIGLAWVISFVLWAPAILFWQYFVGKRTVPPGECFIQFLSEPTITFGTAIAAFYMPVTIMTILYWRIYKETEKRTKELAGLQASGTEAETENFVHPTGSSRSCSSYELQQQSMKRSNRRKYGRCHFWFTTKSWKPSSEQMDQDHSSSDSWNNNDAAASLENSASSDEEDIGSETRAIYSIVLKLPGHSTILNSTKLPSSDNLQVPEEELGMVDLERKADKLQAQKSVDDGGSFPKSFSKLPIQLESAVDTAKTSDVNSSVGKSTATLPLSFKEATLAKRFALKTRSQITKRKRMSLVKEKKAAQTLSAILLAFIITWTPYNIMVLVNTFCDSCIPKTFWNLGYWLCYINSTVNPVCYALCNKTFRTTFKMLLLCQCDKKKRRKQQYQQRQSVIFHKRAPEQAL
T7 sequence (Q9Y5N1 whole entry): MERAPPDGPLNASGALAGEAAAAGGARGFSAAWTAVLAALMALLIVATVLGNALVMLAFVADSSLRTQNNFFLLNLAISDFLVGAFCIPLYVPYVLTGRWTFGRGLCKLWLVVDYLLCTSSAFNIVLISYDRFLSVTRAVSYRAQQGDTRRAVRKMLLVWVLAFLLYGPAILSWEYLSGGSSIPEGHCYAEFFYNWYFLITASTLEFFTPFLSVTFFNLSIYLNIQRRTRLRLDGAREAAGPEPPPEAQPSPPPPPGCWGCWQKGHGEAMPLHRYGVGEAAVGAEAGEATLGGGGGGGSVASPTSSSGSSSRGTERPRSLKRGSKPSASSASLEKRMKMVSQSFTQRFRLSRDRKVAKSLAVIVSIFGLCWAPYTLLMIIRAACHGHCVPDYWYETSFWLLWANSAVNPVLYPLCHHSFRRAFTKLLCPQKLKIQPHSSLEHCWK
T5 sequence (P47898 whole entry): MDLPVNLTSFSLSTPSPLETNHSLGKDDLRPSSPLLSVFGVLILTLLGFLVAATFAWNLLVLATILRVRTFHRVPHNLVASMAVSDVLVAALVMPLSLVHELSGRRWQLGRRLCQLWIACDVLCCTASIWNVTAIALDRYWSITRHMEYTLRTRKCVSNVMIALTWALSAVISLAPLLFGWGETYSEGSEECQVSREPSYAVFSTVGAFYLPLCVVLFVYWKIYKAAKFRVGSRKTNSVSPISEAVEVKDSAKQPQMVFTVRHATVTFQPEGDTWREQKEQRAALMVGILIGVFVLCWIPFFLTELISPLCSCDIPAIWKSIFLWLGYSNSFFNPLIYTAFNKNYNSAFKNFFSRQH

With `CCCCCCOc1nsnc1C1=CCCNC1` [N-desmethylxanomeline], the Emax worked out at 106% on HTR2C [1], 95.9% on CHRM1 and 59% on HTR2C [2]. Besides, the values for the Ki at M5 and at H4 were 0.0933 µM and 0.363 µM, respectively. This compound also displayed an EC50 at CHRM3 of 0.38 µM.

As to `CCCCCCOc1nsnc1C1=CCCN(C)C1` [Xanomeline], the results for the Ki at 5-HT5A, on D1 and on H3 were 0.794 µM, 1.58 µM and 0.794 µM, respectively.
